Paper PMC9857996, “Inhibition of Iron Release from Donkey Spleen Ferritin through Malt-Derived Protein Z–Ferulic Acid Interactions” (Foods, 2023)

Biological target: T1, protein Z (PZ)
T1 construct: gene PAZ1; single band ~40 kDa; three Trp printed (Trp-150, Trp-186, Trp-257)
Test: Trp fluorescence quenching titration
Type: binding, Hordeum vulgare
Details: 50.0 mM sodium citrate pH 4.2, 25 °C; 1.0 μM PZ; n = 22.11 ± 2.13 sites per PZ; read-out: K

Kd: 2000 nM
SMILES: COc1cc(/C=C/C(=O)O)ccc1O [ferulic acid]
